According to EP0386920A2, “2-Hydroxy-3-thienyloxypropylamino derivatives” (IMPERIAL CHEMICAL INDUSTRIES PLC, priority 1989, dated 1990):

Key:
[1] = tested on: BAT mitochondria; experiment: test (a): GDP binding in brown adipose tissue (BAT) mitochondria of cold-adapted rats as a measure of thermogenic activation; assay type: in vivo; details: Rattus norvegicus, sc, 1 h, sub-cutaneous (s.c), BAT removed one hour after dosing, relative to isoprenaline 1 mg/kg, read-out: ED₅₀ (dose necessary to produce 50% of the isoprenaline effect on GDP binding)
[2] = tested on: Rats; experiment: test (c): metabolic rate (oxygen consumption) in cold-adapted rats; assay type: in vivo; details: at 1mgkg⁻¹ p.o., closed-circuit oxygen consumption apparatus
[3] = tested on: Rats; experiment: test (b): heart rate in rats adapted to a thermoneutral environment (D500 dose and selectivity index)

Row | SMILES | ED50 [1] [mg/kg] | increase in metabolic rate [2] [ml O₂ min⁻¹Kg ^0.75] | SI (selectivity index, ratio of D₅₀₀ to ED₅₀ in test (a)) ([3]; s.c) | SI (selectivity index, ratio of D₅₀₀ to ED₅₀ in test (a)) ([3]; route not stated)
1 | COC(=O)COc1ccc(CCNCC(O)COc2ccsc2)cc1 (racemic) [Example 1, Methyl 4-[2-(2-hydroxy-3-(3-thienyloxy)propylamino)ethyl]phenoxyacetate] | 0.2 | 5.2 | > 100 | –
2 | CC(C)NCC(O)c1ccc(O)c(O)c1 (stereo not shown) [isoprenaline, reference compound] | – | – | – | 0.06
